Results on two compounds are retold here after patent US10746749B2, “Ellagic acid formulations for use in coagulation assays” (Abbott Point of Care Inc., priority 2014, dated 2020).

For series [1] the following is noted: cited from earlier work.
Series [2] deals with whole blood. Briefly: PT assay on sensor with SBQ-PVA immobilized substrate, heparin-spiked whole blood. Here is the method:
FIGS. 10 and 11 exemplify this concept as follows. A coagulation sensor was directly printed either with a large (FIG. 10) or small (FIG. 11) SBQ-PVA immobilized coagulation substrate. Subsequently, a PT coagulation activator was printed on top of the immobilized substrate matrix. These sensors were then tested with appropriate fluids to assess coagulation time. As with the results from FIGS. 5 and 6, one benefit of printing more of the immobilized substrate matrix is that the increased amount of immobilized substrate matrix led to an increase in pA. Also, when heparin is spiked into the whole blood sample, the clotting times are not as extended as they are expected to be (FIGS. 10 and 11 (response curves 181) (heparin spike) should be more similar to response curves 182 (abnormally long control fluid) clotting times, but are actually behaving more like whole blood without heparin, (response curves 183)). […] Further, applying a larger amount of the immobilizing matrix results in a greater neutralizing effect (e.g., compare the bias between whole blood and whole blood with heparin in FIGS. 10 and 11). […] In both FIGS. 10 and 11, the heparin spiked blood behaves more like unaltered whole blood than it does like an abnormally long control fluid, reflecting that there is an interferent/heparin neutralizing effect.

With `O=c1oc2c(O)c(O)cc3c(=O)oc4c(O)c(O)cc1c4c23` [ellagic acid], in series [1], the solubility in methanol result is on record as “slightly soluble”.
Take heparin: the “extension of PT clotting time versus whole blood” value in series [2] (heparin 1 IU/mL, smaller print amount of SBQ-PVA neutralizing matrix (FIG. 11)) came to 55%; in series [2] (heparin added to 1 IU/mL, large SBQ-PVA matrix print (FIG. 10)), 14%.
